According to patent publication US20240165129A1, “METHODS OF TREATING PAIN AND DEPRESSION” (priority 2022, published 2024):

Experiments:
[1] = tested on: C57BL/6J mice (inflammatory pain); test: Carrageenan-evoked inflammatory pain, von Frey paw withdrawal; format: in vivo, mouse; details: 12 mg/kg IV, 2 h after 2% carrageenan intraplantar
Experimental: Triol inhibits the above ASICs, so Triol has an analgesic effect. […] Experiments are performed on 12-week-old (20-25 g) C57BL/6J mice following the guidelines of the International Association for the Study of Pain. Inflammatory pain is evoked by intraplantar injection in the left hindpaw of 2% carrageenan (20 μl). After 2 h, Triol (12 mg/kg) or vehicle (20% HP-β-CD) is injected IV. The mechanical withdrawal threshold on the plantar surface of the hindpaw is measured with a set of von Frey hairs in the range of 0.4-26 gm (0.4, 1.2, 2, 4, 6, 8, 10, 15, 26 gm).

[2] = tested on: Sprague-Dawley rats (CFA-induced pain); test: CFA rat pain model, paw pressure (vocalization) and mechanical hypersensitivity tests
Experimental: Male Sprague-Dawley rats (150-175 g) are acclimatized for a week before testing. Rats are housed in a controlled room with a 12-hour light/dark cycle, with free access to food and water. Rats are housed 4 per cage except after the bilateral implantation experiment (2 per cage and individually following surgery). Pain is induced by a single unilateral intra-articular injection of 50 μl complete Freund's adjuvant (CFA, heat-killed Mycobacterium 2 mg/ml) in the right hindpaw under isoflurane (4%) anaesthesia. Sham rats are injected with 50 μl of vehicle in the same conditions. Behavioral experiments are performed 14-16 days after pain induction, when rats weighed between 260 to 320 g. […]
The effect of Triol (0.05 μg/0.5 μl/side) 15 min before the behavioral tests is evaluated in sham and Pain rats, 14 to 16 days following pain induction. The behavior of each rat is then assessed in the different tests (i.e., social interaction or elevated plus maze for anxiety, and paw pressure or paw immersion for pain, see below).
Mechanical hypersensitivity in sham and Pain animals is assessed with an analgesiometer (paw pressure test). Nociceptive thresholds are measured by applying increased pressure to the ipsilateral ankle of unrestrained rats until a vocalisation is obtained. […] Vocalization threshold is assessed at baseline and 15, 25 and 45 min following Triol, mambalgin-1 or saline administration.

CC(C)CCC[C@@H](C)[C@H]1CC[C@H]2[C@@H]3C[C@@H](O)[C@@]4(O)C[C@@H](O)CC[C@]4(C)[C@H]3CC[C@]12C [Triol, cholestane-3β, 5α, 6β-triol]
latency for the paw withdrawal reflex [1]: increases the latency for the paw withdrawal reflex
effects in the pain tests relative to commonly used pain relief drugs [2]: independent of and additive to
pain-related behavior in vocalization and mechanical hypersensitivity tests [2]: decreased levels of pain-related behavior
